# Experimental data: a melting point compilation (Tetko et al.; mined from patent text by program, amines drawn as free bases though some values may be those of a salt)
row,Compound,melting point
1,CCN(N)c1cnn(-c2cccc(C(F)(F)F)c2)c(=O)c1,108 to 110 °C
2,OCC1OC(Sc2ccccc2)C(OCc2ccccc2)C(OCc2ccccc2)C1OCc1ccccc1 (configuration not stated),127 to 129 °C
3,COC(=O)c1cn2c(n1)COc1ccc(NC(C)=O)cc1-2,216 to 219 °C
4,O=C(O)CNC(=O)CCCc1ccccc1,99 to 101 °C
5,Cc1nc(-c2ccc(=O)[nH]c2C)cs1,188 to 190 °C
6,O=C([C@@H]1CCCN1C(=O)CC1CCc2ccccc2C1)N1CCCC1 (some centres not stated),104 to 106 °C
7,CCCNC(=O)Nc1nc(-c2cc(C)cc(C)c2)c(-c2ccncc2)s1,128 to 130 °C
8,COC(=O)c1cc2cc3[nH]c(=O)oc3cc2[nH]1,267 to 277 °C
9,CCOC(=O)c1cn(-c2ncnn2C)c2cc(F)c(F)cc2c1=O,230 to 231 °C
10,COc1ccc(NC(=O)c2cc([N+](=O)[O-])ccc2NC(=O)CF)c(C)c1,237 to 239 °C
11,C[C@@H]1CCC[C@H](C)N1CCNc1ccnc2cc(Cl)ccc12,138 to 139 °C
12,COC(=O)C1=CC=C(CC2=CCc3ccc(NC(=O)C(F)(F)F)cc32)C(OC)(OC)C1,198 to 200 °C
13,COc1cc2[nH]c(N(C)Cc3cccc(N4CCCC4=O)c3)nc(=O)c2c(OC)c1OC,166 °C
14,Cc1cccc(C)c1N(Cc1ccon1)C(=O)CCl,78 to 81 °C
15,CCOC(=O)c1nc2c(=O)[nH]c3cc(C(F)(F)F)ccc3n2c1CN1CCN(C)CC1,255 °C
16,O=C(O)c1ccc(SCC(=O)C23CC4CC(CC(C4)C2)C3)nc1,174 to 176 °C

# Now from value to compound:
row,melting point,Compound
1,136 to 138 °C,NC(=O)OC(=O)[C@@H]1Cc2ccccc2CN1C(=O)OCc1ccccc1
2,126 to 128 °C,CC(CCOc1c(-c2ccc(S(C)(=O)=O)cc2)cnn(-c2ccc(F)c(F)c2)c1=O)C(F)(F)F (configuration not stated)
3,101 to 102 °C,Nc1c([N+](=O)[O-])ccc(Oc2cccc(Cl)c2)c1Cl
4,155 to 157 °C,O=C(NCc1cc(C(F)(F)F)cc(C(F)(F)F)c1)c1c(-c2ccccc2)c2cccnc2c(=O)n1CCCCO
5,142 to 144 °C,COc1nc2ccccc2nc1NC(=O)N1CCN(c2ccccc2F)CC1
6,115 to 116 °C,CCCCc1nc(C(=O)C(C)C)c(C#N)n1Cc1ccc(-c2ccccc2-c2nnnn2C(c2ccccc2)(c2ccccc2)c2ccccc2)cc1
7,114 to 115 °C,Cc1ccc(-c2nc(Cc3cccc(CC(CO)CO)c3)c(C)o2)cc1
8,62 to 64 °C,COC(=O)C1=C(Cl)/C(=N/OS(=O)(=O)c2ccc(C)cc2)CC(c2ccc(Cl)c(OC)c2F)N1 (configuration not stated)
9,179 to 181 °C,Nc1ccc(S(=O)(=O)Nc2cc(Cl)nc(C(F)(F)F)c2)cc1
10,170 °C,CS(=O)(=O)c1ccc(-c2nc(-c3ccccc3)nn2-c2ccc(Cl)cc2)cc1
11,70 to 71 °C,O=C(C1=CCCCC1)c1cc(-c2ccccc2)no1
12,117 to 118 °C,C=CCn1nc(-c2sc(C(=O)NCc3ccccn3)nc2-c2ccccc2)ccc1=O
13,83 to 84 °C,Cc1c(C)n(CC(F)(F)F)c2c(OCc3ccccc3)nncc12
14,213 to 216 °C,OC1CCCN(CCCOc2ccc3cc(-c4n[nH]c5cc(-c6ccccc6)sc45)[nH]c3c2)C1 (configuration not stated)
15,174 to 177 °C,CCn1c2ccccc2c2c3c(nc(C)c21)CC(C)(C)CC3=O
16,188 to 189 °C,COc1ccc(N2C(=O)[C@H](NC(=O)OC(C)(C)C)[C@@H]2CON2C(=O)c3ccccc3C2=O)cc1 (relative stereo)
17,258 to 260 °C,CC(C)(C)c1cc2c(n1-c1ccc(O)c(C(=O)O)c1)CCc1ccccc1-2
18,199 to 201 °C,Cc1oc(-c2ccccc2)nc1CCOc1ccc(C[C@H](NC(=O)C=Cc2ccco2)C(=O)O)cc1
19,160 to 163 °C,CCOC(=O)Cc1ccc(NC(=O)Nc2ccccc2Br)c(OC)n1
20,122 to 124 °C,C=CCOC(=O)Cc1cccc(NC(=O)NCC(=O)N(CC(=O)OC(C)(C)C)c2ccccc2C(=O)c2ccccc2)c1
21,119 to 121 °C,C#CCC(Cc1cccnc1)(C(=O)O)S(=O)(=O)c1ccc(OC)cc1 (configuration not stated)
